# Data as given in patent US20190185544A1, “COMPOSITIONS AND METHODS OF MODULATING ABETA PROTEIN” (University of South Florida, priority 2016, published 2019).
# What was measured:
# CHO/APPdE1 cells = assay: Aβ production in CHO cells expressing APP695 lacking the N-terminal E1 region; type: cell-based, Chinese hamster; conditions: peptides 10 μM or apoE 10 μg/mL, 4 h; compared with CHO/APPwt
# Text: CHO cells were also transfected with pCMV6 APP695 or pCMV6 E1 depleted APP695, yielding cells expressing wild type APP695 (CHO/APPwt) or truncated APP695 lacking the N-terminal E1 region (CHO/APPdE1). […] Diagram indicates important domains identified in APP, including N-terminal E1 region (top panel), and APPwt and APPdE1 proteins in cell lysates and conditioned media derived from the transfected CHO cells as determined by WB using 6E10 (middle panels). […] ELISA results are representative of three independent experiments with each condition triplicated and presented as mean±s.d. of Aβs (μg/mg of total intracellular protein). Asterisk indicates P<0.05 compared with the corresponding absence of 22C11, 6H3B5 or 6KApoEp, or with corresponding CHO/APPwt cells, as determined by one-way ANOVA.
# Therefore, apoE and ApoEp mediates and 6KApoEp reduces Aβ production by binding to the N-terminal E1 region of APP, but this region of APP is not required for spontaneous Aβ release in the absence of apoE.
# p38 MAPK = p38 MAPK phosphorylation in CHO/APPwt cell lysates (WB); type: cell-based, Chinese hamster; conditions: peptides 10 μM or apoE 10 μg/mL, 0 to 180 min
# N-terminus of APP = assay: Co-immunoprecipitation and co-localisation with N-terminal APP in CHO/APPwt cells; type: binding, human; conditions: peptides 10 μM or apoE 10 μg/mL, 2 h; IP with 6H3B5 or pN-APP
# Experimental: Total secreted APP (t-sAPP) and full-length APP (f-APP) in total (inputs), immunoprecipitates and immunodepleted media and lysates were determined by WB using 22C11 or anti-C-terminal APP751/70 antibody (pC-APP), respectively (FIG. 20A left panels and FIG. 20B, top panels). Alternatively, conditioned media and cell lysates were IP with anti-N-terminal APP41/66 antibody (pN-APP) and apoE, or 6KApoEp and ApoEp, was determined using anti-human apoE antibody (ApoE1H4; FIG. 20A, right panels) or 6H3B5, respectively (FIG. 20B, bottom panels). In addition, CHO/APPwt cells were plated at 8 well-chambers at 1×10^5/well for 24 h, treated with 6K, ApoEp or 6KApoEp at 10 μM for 2 h, fixed in 4% paraformaldehyde and stained with 6H3B5 and pN-APP antibodies (FIG. 20C). Alexa Fluor 488 goat anti-mouse IgG (green) was used to detect ApoEp and 6KApoEp, while Alexa Fluor 594 donkey anti-rabbit IgG (red) was used to detect N-terminal APP. DAPI co-staining was done to show nuclear DNA. Homogenates prepared from three TgAPPwt mice (2 female/1 male), two AD patients (AD1[…], AD2[…]) and two normal age-matched control cortices (Ctrl1[…], Ctrl2[…]) were also IP with 6H3B5 or pN-APP and t-APP and apoE were determined using 6E10 and mApoE, respectively (FIGS. 20D-20E).
# Total secreted APP in conditioned media and full length APP in cell lysates were then determined by WB using anti-N-terminal (22C11) and anti-C-terminal APP antibodies (pC-APP), respectively. […] In addition, ApoEp and 6KApoEp colocalized with N-terminal APP in cultured CHO/APPwt cells as determined by immunofluorescence staining with 6H3B5 and pN-APP antibodies (FIG. 20C), respectively, confirming that N-terminal APP physically associates with apoE in cell culture. […]
# WB analyses were performed as previously described^43,44. […] For all other proteins detected by WB, 10% tris-SDS gels were used. Densitometry analysis was performed as previously described using a FluorS Multiimager with Quantity One™ software 43. […]
# Sequence of N-terminus of APP (P05067 18-189 limits assumed): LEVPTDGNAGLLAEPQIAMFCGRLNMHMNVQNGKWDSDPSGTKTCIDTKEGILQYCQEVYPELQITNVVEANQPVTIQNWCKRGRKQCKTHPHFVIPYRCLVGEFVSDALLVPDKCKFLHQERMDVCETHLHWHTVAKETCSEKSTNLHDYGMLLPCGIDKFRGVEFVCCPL
Substance,Aβ production in CHO/APPdE1 cells (CHO/APPdE1 cells),p38 MAPK phosphorylation (p38 MAPK),immunoprecipitation and localization with N-terminal APP (N-terminus of APP)
ApoE3: human recombinant apolipoprotein E3 protein (BioVision),markedly less Aβ production compared with CHO/APPwt cells,activated both p44/42 and p38 MAPK phosphorylation,immunoprecipitated and localized with N-terminal APP in vivo and in vitro
ApoE4: human recombinant apolipoprotein E4 protein (BioVision),markedly less Aβ production compared with CHO/APPwt cells,activated both p44/42 and p38 MAPK phosphorylation,immunoprecipitated and localized with N-terminal APP in vivo and in vitro
